Reference: patent US9145401B2, “Amide derivative and use of the same as stability index of a luliconazole pharmaceutical formulation” (POLA PHARMA INC., priority 2012, dated 2015)

System: fungi
Test: Antifungal activity of the amide form

For `NC(=O)/C(=C1/SCC(c2ccc(Cl)cc2Cl)S1)n1ccnc1` (single isomer, unassigned) [amide form, [R-(E)]-α-[4-(2,4-dichlorophenyl)-1,3-dithiolan-2-ylidene]-1H-imidazole-1-acetamide], the antifungal activity was “low”.
